Experimental data as given in US9211310B2, “Use of a Chinese medicine composition in preparing medicaments for treating secondary prevention of myocardial infarction” (TASLY PHARMACEUTICAL GROUP CO., LTD, priority 2010, dated 2015).

Tested on: patients after acute myocardial infarction
Test: Life quality, Seattle Angina Questionnaire (SAQ), same clinical trial
Assay type: in vivo, human
Settings: 6 months after treatment
Description: 3508 patients who were in accordance with the diagnostic standards of AMI for 28 days to 2 years and differentiated as Qi deficiency and blood stagnation syndrome by TCM were studied. 0.5 g Chinese medicine composition prepared by the method of EXAMPLE 1 (Coded as QSYQ) was administrated half an hour after meal, 3 times per day.
There were 19 questions in the Seattle angina questionnaire (SAQ), including 5 parts: physical limitation (PL), anginal stability (AS), anginal frequency (AF), treatment satisfaction (TS) and disease perception (DP). After being given necessary explanation by doctors, the questions were answered independently by patients.
They included the overall survival time, angina pectoris score, TCM symptom score and life quality score, where angina pectoris score, TCM symptom score and life quality score were evaluated at randomization, in 1st, 3rd, 6th, 9th, 12th month after treatment and 18th month after follow-up.
All evaluation results of SAQ were described during the period of observation, and Wilcoxon rank sum test was used for inter-group comparison.
The evaluation results in the SAQ were depicted in different observations, and inter-group comparison was tested by Wilcoxon Rank-sum test.

CC(=O)Oc1ccccc1C(=O)O [Control group, aspirine]
SAQ Question 1-3: Not limited, number of patients (FAS): 1358
SAQ Question 1-3: Not limited, percent of patients (FAS): (77.87%)
SAQ Question 1-3: Other reasons, number of patients (FAS): 11
SAQ Question 1-3: Other reasons, percent of patients (FAS): (0.63%)
SAQ Question 1-3: Severely limited, number of patients (FAS): 4
SAQ Question 1-3: Severely limited, percent of patients (FAS): (0.23%)
SAQ Question 1-3: Slightly limited, number of patients (FAS): 265
SAQ Question 1-3: Slightly limited, percent of patients (FAS): (15.19%)
SAQ Question 1-4: Mildly limited, number of patients (FAS): 314
SAQ Question 1-4: Mildly limited, percent of patients (FAS): (18.00%)
SAQ Question 1-4: Moderately limited, number of patients (FAS): 97
SAQ Question 1-4: Moderately limited, percent of patients (FAS): (5.56%)
SAQ Question 1-4: Not limited, number of patients (FAS): 731
SAQ Question 1-4: Not limited, percent of patients (FAS): (41.92%)
SAQ Question 1-4: Other reasons, number of patients (FAS): 13
SAQ Question 1-4: Other reasons, percent of patients (FAS): (0.75%)
SAQ Question 1-4: Severely limited, number of patients (FAS): 29
SAQ Question 1-4: Severely limited, percent of patients (FAS): (1.66%)
SAQ Question 1-4: Slightly limited, number of patients (FAS): 560
SAQ Question 1-4: Slightly limited, percent of patients (FAS): (32.11%)
SAQ Question 1-5: Mildly limited, number of patients (FAS): 292
SAQ Question 1-5: Mildly limited, percent of patients (FAS): (16.75%)
SAQ Question 1-5: Moderately limited, number of patients (FAS): 137
SAQ Question 1-5: Moderately limited, percent of patients (FAS): (7.86%)
SAQ Question 1-5: Not limited, number of patients (FAS): 755
SAQ Question 1-5: Not limited, percent of patients (FAS): (43.32%)
SAQ Question 1-5: Other reasons, number of patients (FAS): 13
SAQ Question 1-5: Other reasons, percent of patients (FAS): (0.75%)
SAQ Question 1-5: Severely limited, number of patients (FAS): 20
SAQ Question 1-5: Severely limited, percent of patients (FAS): (1.15%)
SAQ Question 1-5: Slightly limited, number of patients (FAS): 526
SAQ Question 1-5: Slightly limited, percent of patients (FAS): (30.18%)
SAQ Question 1-9: Mildly limited, % of cases (FAS): (19.93%)
SAQ Question 1-9: Mildly limited, cases (FAS): 341
SAQ Question 1-9: Moderately limited, % of cases (FAS): (20.86%)
SAQ Question 1-9: Moderately limited, cases (FAS): 357
SAQ Question 1-9: Not limited, % of cases (FAS): (3.39%)
SAQ Question 1-9: Not limited, cases (FAS): 58
SAQ Question 1-9: Other limited, % of cases (FAS): (6.20%)
SAQ Question 1-9: Other limited, cases (FAS): 106
SAQ Question 1-9: Severely limited, % of cases (FAS): (35.42%)
SAQ Question 1-9: Severely limited, cases (FAS): 606
SAQ Question 1-9: Slightly limited, % of cases (FAS): (14.20%)
SAQ Question 1-9: Slightly limited, cases (FAS): 243
SAQ 2nd question: Clearly increased, % of cases (PP): (0.21%)
SAQ 2nd question: Clearly increased, cases (PP): 3
SAQ 2nd question: Clearly reduced, % of cases (PP): (24.52%)
SAQ 2nd question: Clearly reduced, cases (PP): 355
SAQ 2nd question: Same, % of cases (PP): (36.46%)
SAQ 2nd question: Same, cases (PP): 528
SAQ 2nd question: Slightly increased, % of cases (PP): (2.76%)
SAQ 2nd question: Slightly increased, cases (PP): 40
SAQ 2nd question: Slightly reduced, % of cases (PP): (36.05%)
SAQ 2nd question: Slightly reduced, cases (PP): 522
SAQ 3rd question: 1-2 times per week, % of cases (PP): (36.05%)
SAQ 3rd question: 1-2 times per week, cases (PP): 522
SAQ 3rd question: 1-3 times per day, % of cases (PP): (2.76%)
SAQ 3rd question: 1-3 times per day, cases (PP): 40
SAQ 3rd question: <1 time per week, % of cases (PP): (24.52%)
SAQ 3rd question: <1 time per week, cases (PP): 355
SAQ 3rd question: No onset, % of cases (PP): (0.00%)
SAQ 3rd question: No onset, cases (PP): 0
SAQ 3rd question: ≧3 times per week, % of cases (PP): (36.46%)
SAQ 3rd question: ≧3 times per week, cases (PP): 528
SAQ 3rd question: ≧4 times per day, % of cases (PP): (0.21%)
SAQ 3rd question: ≧4 times per day, cases (PP): 3
SAQ Question 1-3: Mildly limited, number of patients (PP): 65
SAQ Question 1-3: Mildly limited, percent of patients (PP): (4.48%)
SAQ Question 1-3: Moderately limited, number of patients (PP): 14
SAQ Question 1-3: Moderately limited, percent of patients (PP): (0.97%)
SAQ Question 1-3: Not limited, number of patients (PP): 1131
SAQ Question 1-3: Not limited, percent of patients (PP): (78.00%)
SAQ Question 1-3: Other reasons, number of patients (PP): 9
SAQ Question 1-3: Other reasons, percent of patients (PP): (0.62%)
SAQ Question 1-3: Severely limited, number of patients (PP): 4
SAQ Question 1-3: Severely limited, percent of patients (PP): (0.28%)
SAQ Question 1-3: Slightly limited, number of patients (PP): 227
